Source: ChEMBL document CHEMBL1155179 (J Med Chem, 2009)

What was measured:
Type in all cases: tissue-based
[1] = molecular target: T1, Synaptic vesicular amine transporter (Rattus norvegicus, UniProt Q01827); test: Displacement of [3H]DTBZ from VMAT2 dihydrotetrabenazine binding site in rat brain synaptic vesicle by scintillation counting
[2] = molecular target: T1, Synaptic vesicular amine transporter; test: Inhibition of [3H]dopamine uptake at VMAT2 in rat brain synaptic vesicle by liquid scintillation spectroscopy
[3] = molecular target: Synaptic vesicular amine transporter (Rattus norvegicus) (UniProt Q01827); test: Ratio of Ki for displacement of [3H]DTBZ from VMAT2 dihydrotetrabenazine binding site in rat brain synaptic vesicle to Ki for inhibition of [3H]dopamine uptake at VMAT2 in rat brain synaptic vesicle
Sequence of Synaptic vesicular amine transporter (Rattus norvegicus) (Q01827 whole entry): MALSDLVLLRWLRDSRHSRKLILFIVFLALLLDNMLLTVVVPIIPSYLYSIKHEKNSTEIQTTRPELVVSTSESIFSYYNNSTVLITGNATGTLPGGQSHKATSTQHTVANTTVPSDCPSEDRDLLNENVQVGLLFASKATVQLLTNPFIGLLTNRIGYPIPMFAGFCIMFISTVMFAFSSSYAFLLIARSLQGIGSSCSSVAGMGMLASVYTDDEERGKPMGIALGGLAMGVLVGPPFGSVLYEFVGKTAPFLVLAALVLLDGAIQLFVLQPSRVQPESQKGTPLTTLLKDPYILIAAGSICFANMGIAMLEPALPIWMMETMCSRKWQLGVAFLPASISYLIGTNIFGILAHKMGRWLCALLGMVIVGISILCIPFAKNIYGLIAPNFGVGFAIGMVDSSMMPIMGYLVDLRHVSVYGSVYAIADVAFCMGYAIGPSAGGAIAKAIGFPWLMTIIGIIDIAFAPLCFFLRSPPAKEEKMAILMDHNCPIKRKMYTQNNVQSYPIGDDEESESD

T1 sequence (Q01827 whole entry): as above

Compound	Ki [1] [µM]	Ki [2] [nM]	Ratio Ki [3]
CN1[C@H](CCCc2ccccc2)CC[C@@H]1CCCc1ccccc1	2.78	120	23.2
c1ccc(CC[C@@H]2CC[C@H](CCc3ccccc3)N2)cc1	3.06	29	106
CN1[C@@H](Cc2ccccc2)CC[C@H]1Cc1ccccc1	2.46	19	130
OC[C@H](c1ccccc1)N1[C@H](CCc2ccccc2)CC[C@H]1CCc1ccccc1	5.05	1940	2.6
c1ccc(CCC[C@@H]2CC[C@H](CCCc3ccccc3)N2)cc1	0.27	14	19.3
c1ccc(CC[C@@H]2CC[C@@H](CCc3ccccc3)N2)cc1	3.4	54	63
CN1[C@H](CCc2ccccc2)CC[C@@H]1CCc1ccccc1	8.8	270	32.6
c1ccc(C[C@H]2CC[C@@H](Cc3ccccc3)N2)cc1	1.64	9.3	176
CN1[C@@H](CCc2ccccc2)CC[C@@H]1CCc1ccccc1	14.5	170	85
c1ccc(CC[C@H]2CCC[C@@H](CCc3ccccc3)N2)cc1		23	100
OC[C@@H](c1ccccc1)N1[C@@H](CCc2ccccc2)CC[C@@H]1CCc1ccccc1	5.61	270	20.7
OC[C@@H](c1ccccc1)N1[C@H](CCc2ccccc2)CC[C@@H]1CCc1ccccc1	2.75	140	19.6
c1ccc(CC[C@H]2CC[C@H](CCc3ccccc3)N2)cc1	1.33	35	38
OC[C@H](c1ccccc1)N1[C@H](CCc2ccccc2)CC[C@@H]1CCc1ccccc1	4.34	1290	3.36
CN1[C@H](CCc2ccccc2)CC[C@H]1CCc1ccccc1	3.97	120	33.1
